Data published in patent US10941137B2, “Difluoromethyl-phenyl triazoles” (Boehringer Ingelheim International GmbH, priority 2018, dated 2021).

Biological target: T1, human GABAA α5β3γ2s receptor (Homo sapiens, UniProt P18507+P31644)
T1 sequence (P18507 1-475): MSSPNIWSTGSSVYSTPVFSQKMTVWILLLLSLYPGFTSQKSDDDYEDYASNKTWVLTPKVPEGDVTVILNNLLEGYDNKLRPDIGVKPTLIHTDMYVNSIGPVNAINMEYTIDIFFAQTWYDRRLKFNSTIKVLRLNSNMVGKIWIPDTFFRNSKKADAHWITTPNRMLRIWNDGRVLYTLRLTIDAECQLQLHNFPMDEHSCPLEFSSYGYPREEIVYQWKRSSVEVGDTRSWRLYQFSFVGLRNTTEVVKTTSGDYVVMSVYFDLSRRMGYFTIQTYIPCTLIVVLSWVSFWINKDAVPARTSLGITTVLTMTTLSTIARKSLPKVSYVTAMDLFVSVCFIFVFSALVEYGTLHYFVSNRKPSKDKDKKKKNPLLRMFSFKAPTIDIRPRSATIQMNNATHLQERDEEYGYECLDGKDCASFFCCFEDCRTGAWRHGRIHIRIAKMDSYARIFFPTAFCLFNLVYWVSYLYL
T1 sequence (P31644 1-462): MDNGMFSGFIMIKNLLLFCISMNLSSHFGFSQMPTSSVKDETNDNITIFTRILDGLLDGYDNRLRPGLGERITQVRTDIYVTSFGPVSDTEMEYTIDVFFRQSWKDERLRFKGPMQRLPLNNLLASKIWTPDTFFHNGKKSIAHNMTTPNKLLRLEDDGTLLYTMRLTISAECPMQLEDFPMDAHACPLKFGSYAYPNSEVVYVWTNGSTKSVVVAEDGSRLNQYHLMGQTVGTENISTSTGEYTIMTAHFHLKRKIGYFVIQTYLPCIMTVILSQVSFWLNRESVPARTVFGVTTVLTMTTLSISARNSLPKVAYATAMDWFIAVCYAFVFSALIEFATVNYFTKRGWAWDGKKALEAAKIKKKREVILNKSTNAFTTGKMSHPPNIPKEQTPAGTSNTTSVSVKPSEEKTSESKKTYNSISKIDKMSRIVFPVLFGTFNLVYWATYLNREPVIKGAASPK
Assay: Assay A: in vitro inhibition of 3H-flumazenil binding, HEK cells expressing human GABAA α5β3γ2s receptor
Settings: 3H-flumazenil 1 nM, HEK-293 membranes, 40 min at 2° C.; Ki from IC50 by Cheng and Prusoff
Protocol: HEK-293 cell lines with stable expression of recombinant human GABAA α5β3γ2s receptors (plasmid H46/E9/B10) are seeded in T175 polystyrene flasks or roller bottles (1700 cm^2, Fisher Scientific CCI-431191), and cultured (37 C, 5% CO˜) in Dulbecco's Modified Eagle Medium (DMEM) with GlutaMAX™ supplemented with 10% fetal bovine serum and one or both of the following antibiotics: hygromycin B ([…]; γ2 subunit) or G418 (0.5 mg/ml; […]).
When the cultures reach confluency, the DMEM is removed and the cells are washed (10 ml for T175 flasks; 50 ml for roller bottles) once in Dulbecco's Phosphate Buffered Saline (DPBS). Following addition of DPBS to the cultures (10 ml for T175 flasks; 100 ml for roller bottles) for approximately 5 min cells are easily detached from the surface by shaking or tapping the flask gently. The cell suspension is transferred to Falcon tubes and centrifuged at 23,500×g for 10 min at 2° C. The pellet is washed once in 15 ml Tris-citrate buffer (50 mM, pH 7.1) using an Ultra-Turrax homogenizer and centrifuged at 2° C. for 10 min at 27,000×g. The washed pellet is re-suspended in 15 ml Tris-citrate buffer and frozen at −80° C. until the day of the binding experiment.
On the day of the experiment the cell membrane preparation is thawed and centrifuged at 2° C. for 10 min at 27,000×g. The pellet is re-suspended, using an Ultra-Turrax homogenizer in Tris-citrate buffer, to 15-50 µg protein per assay and then used for binding assays.
Non-specific binding is determined using clonazepam (1 μM, final concentration).
All dilutions of test compounds and incubation of assay are performed in glass vials/96-vial plates. […] Compounds are dissolved in 100% DMSO (10 mM stock), diluted in 48% ethanol-water, and tested in triplicate in serial 1:3 or 1:10 dilutions. When screening large numbers of compounds only one concentration of each compound is tested in single wells. Reference compounds are not included routinely, but for each experiment performed total and nonspecific binding is compared to data obtained during validation of the assay.
Binding is either terminated by rapid filtration onto
1) Whatman GF/C glass fibre filters using a Brandel Cell harvester, followed by 5 washes with 1 ml ice-cold buffer or onto 2) UniFilter GF/C glass fibre filter plates using a Tomtec cell harvester, followed by washing with approximately 5 ml ice-cold buffer.
The amount of radioactivity on the filters is determined by conventional liquid scintillation counting using a
1) Tri-Garb™ counter (PerkinElmer Life and Analytical Sciences) for separate large filters or
2) Topcount™ counter (PerkinElmer Life and Analytical Sciences) for 96-well filter plates. Specific binding is total binding minus non-specific binding.
For screening purposes n is set to 1. The IC50 value is calculated from the concentration response curves by the non-linear regression method using the curve-fitting program GraphPad Prism. […]

Compound | Ki [nM]
Cc1nnn(-c2ccc(C(F)F)cc2)c1COc1ccc(-n2cc(C(F)(F)F)cn2)nn1 [Example 25] | 0.35
COC(=O)c1cn(-c2ccc(OCc3c(C)nnn3-c3ccc(C(F)F)cc3)nn2)cn1 [Example 29] | 0.063
Cc1nnn(-c2ccc(C(F)F)cc2)c1COc1ccc(-n2ccc(C(N)=O)n2)nn1 [Example 21] | 0.047
Cc1nnn(-c2ccc(C(F)F)cc2)c1COc1ccc(-n2cc3c(n2)CCNC3=O)nn1 [Example 26] | 0.12
Cc1nnn(-c2ccc(C(F)F)cc2)c1COc1ccc(-n2cnc(C=O)c2)nn1 [Example 17] | 0.089
Cc1nnn(-c2ccc(C(F)F)cc2)c1COc1ccc(-n2cnc(S(C)(=O)=O)c2)nn1 [Example 19] | 0.38
Cc1nnn(-c2ccc(C(F)F)cc2)c1COc1ccc(-n2cnc(C[N+](C)(C)C)c2)nn1.O=C([O-])C(F)(F)F [Example 36, ({1-[6-({1-[4-(difluoromethyl)phenyl]-4-methyl-1H-1,2,3-triazol-5-yl}methoxy)pyridazin-3-yl]-1H-imidazol-4-yl}methyl)trimethylazanium trifluoroacetate] | 0.12
Cc1cc(-c2ccc(OCc3c(C)nnn3-c3ccc(C(F)F)cc3)nn2)cnn1 [Example 11] | 0.058
Cc1nnn(-c2ccc(C(F)F)cc2)c1COc1ccc(-n2cc(C#N)cn2)nn1 [Example 31] | 0.21
Cc1nnn(-c2ccc(C(F)F)cc2)c1COc1ccc(-c2cnc(OCC(C)(C)O)nc2)nn1 [Example 4] | 0.87
Cc1nnn(-c2ccc(C(F)F)cc2)c1COc1ccc(-c2ccnc(O)c2)nn1 [Example 2, 4-[6-({1-[4-(difluoromethyl)phenyl]-4-methyl-1H-1,2,3-triazol-5-yl}methoxy)pyridazin-3-yl]pyridin-2-ol] | 0.086
Cc1nnn(-c2ccc(C(F)F)cc2)c1COc1ccc(-n2ccc(C(F)(F)F)n2)nn1 [Example 24] | 0.25
Cc1nnn(-c2ccc(C(F)F)cc2)c1COc1ccc(-c2cnn(C3CC3)c2)nn1 [Example 9] | 0.25
Cc1nnn(-c2ccc(C(F)F)cc2)c1COc1ccc(-n2cnc(C(F)F)c2)nn1 [Example 15] | 0.11
CC(=O)c1cn(-c2ccc(OCc3c(C)nnn3-c3ccc(C(F)F)cc3)nn2)cn1 [Example 32] | 0.039
CNC(=O)c1cn(-c2ccc(OCc3c(C)nnn3-c3ccc(C(F)F)cc3)nn2)cn1 [Example 14] | 0.071

Compound | Ki [nM]
Cc1ncc(-c2ccc(OCc3c(C)nnn3-c3ccc(C(F)F)cc3)nn2)o1 [Example 6] | 0.11
Cc1nnn(-c2ccc(C(F)F)cc2)c1COc1ccc(-n2cnc(Cl)c2)nn1 [Example 18] | 0.056
Cc1nnn(-c2ccc(C(F)F)cc2)c1COc1ccc(-n2cnc(C(C)O)c2)nn1 (centres unmarked) [Example 40] | 0.16
Cc1n[nH]c(C)c1-c1ccc(OCc2c(C)nnn2-c2ccc(C(F)F)cc2)nn1 [Example 12, 3-({1-[4-(difluoromethyl)phenyl]-4-methyl-1H-1,2,3-triazol-5-yl}methoxy)-6-(3,5-dimethyl-1H-pyrazol-4-yl)pyridazine] | 0.9
Cc1nnn(-c2ccc(C(F)F)cc2)c1COc1ccc(-n2cnc(C(C)(C)O)c2)nn1 [Example 39, 2-{1-[6-({1-[4-(difluoromethyl)phenyl]-4-methyl-1H-1,2,3-triazol-5-yl}methoxy)pyridazin-3-yl]-1H-imidazol-4-yl}propan-2-ol] | 0.14
Cc1nnn(-c2ccc(C(F)F)cc2)c1COc1ccc(-n2ccc(C#N)n2)nn1 [Example 20] | 0.009
Cc1nnn(-c2ccc(C(F)F)cc2)c1COc1ccc(-n2cnc(C(=O)O)c2)nn1 [Example 37, 1-[6-({1-[4-(difluoromethyl)phenyl]-4-methyl-1H-1,2,3-triazol-5-yl}methoxy)pyridazin-3-yl]-1H-imidazole-4-carboxylic acid] | 0.81
CCn1cc(-c2ccc(OCc3c(C)nnn3-c3ccc(C(F)F)cc3)nn2)cn1 [Example 7] | 0.032
Cc1nnn(-c2ccc(C(F)F)cc2)c1COc1ccc(-n2cnc(CN)c2)nn1 [Example 35, {1-[6-({1-[4-(difluoromethyl)phenyl]-4-methyl-1H-1,2,3-triazol-5-yl}methoxy)pyridazin-3-yl]-1H-imidazol-4-yl}methanamine] | 0.057
Cc1nnn(-c2ccc(C(F)F)cc2)c1COc1ccc(-c2cncnc2)nn1 [Example 22] | 0.11
Cc1ncn(-c2ccc(OCc3c(C)nnn3-c3ccc(C(F)F)cc3)nn2)n1 [Example 33] | 0.163
COc1ncc(-c2ccc(OCc3c(C)nnn3-c3ccc(C(F)F)cc3)nn2)cn1 [Example 3] | 0.16
Cc1nnn(-c2ccc(C(F)F)cc2)c1COc1ccc(-n2cnc(CO)c2)nn1 [Example 38, {1-[6-({1-[4-(difluoromethyl)phenyl]-4-methyl-1H-1,2,3-triazol-5-yl}methoxy)pyridazin-3-yl]-1H-imidazol-4-yl}methanol] | 0.2
Cc1nnn(-c2ccc(C(F)F)cc2)c1COc1ccc(-c2cnn(C)c2)nn1 [Example 5] | 0.11
Cc1nnn(-c2ccc(C(F)F)cc2)c1COc1ccc(-c2cncc(-n3ccnc3)c2)nn1 [Example 8] | 0.055
Cc1nnn(-c2ccc(C(F)F)cc2)c1COc1ccc(-n2cnc(C(N)=O)c2)nn1 [Example 27, 1-[6-({1-[4-(difluoromethyl)phenyl]-4-methyl-1H-1,2,3-triazol-5-yl}methoxy)pyridazin-3-yl]-1H-imidazole-4-carboxamide] | 0.036
